Test results taken from patent US12721928B1, “Active agent-eluting hemostatic agents for prevention of surgical site infection” (priority 2020, dated 2026).
Where two headings read alike, the source gives them in different places.

Columns and labels:
mammalian cells = settings: cited from earlier work
S. aureus = assay: Modified Kirby-Bauer disk diffusion test; assay type: cell-based, Staphylococcus aureus; settings: filter paper on S. aureus coated agar
Method: Inhibition of S. Aureus 25293 or E. Coli (Migula) Castellani and Chalmers by antibiotic-eluting hemostatic agents was determined through modified Kirby-Bauer disk diffusion tests and microdilution assays. Throughout all Kirby-Bauer tests, agar plates were formed using tryptic soy agar. The plates were subsequently coated with the appropriate strain within its exponential growth phase at a concentration of 10^8 CFU/mL. Filter papers that had been incubated with the hemostatic agents, gelatin, or pure antibiotic equivalent to 24-hour release concentrations for two hours were then immediately placed upon the plates. Zones of inhibition were measured and photographed following 16-18 hours of incubation at 37° C.

[1] = FTIR of antibiotic released from hemostatic agents (structural integrity); settings: all released samples
From the text: FTIR spectra were collected on a Nicolet Is10 to ensure structural integrity of antibiotics released from the hemostatic agents. Released samples were scanned in the range between 4000 and 800 cm^−1.

cultured cells = settings: EDC up to 10 mg/mL; cited from earlier work

| Compound | zone of inhibition (ZOI) (S. aureus) | basic chemical stability of released antibiotic [1] | further results |
| --- | --- | --- | --- |
| CN[C@H](CC(C)C)C(=O)N[C@H]1C(=O)N[C@@H](CC(N)=O)C(=O)N[C@H]2C(=O)N[C@H]3C(=O)N[C@H](C(=O)N[C@H](C(=O)O)c4cc(O)cc(O)c4-c4cc3ccc4O)[C@H](O)c3ccc(c(Cl)c3)Oc3cc2cc(c3O[C@@H]2O[C@H](CO)[C@@H](O)[C@H](O)[C@H]2O[C@H]2C[C@](C)(N)[C@H](O)[C@H](C)O2)Oc2ccc(cc2Cl)[C@H]1O [vancomycin] | clear zone of inhibition | confirmed | toxicity to mammalian cells (mammalian cells; each component separately): minimally toxic |
| CC(C)(O/N=C(\C(=O)N[C@@H]1C(=O)N2C(C(=O)[O-])=C(C[n+]3ccccc3)CS[C@H]12)c1csc(N)n1)C(=O)O [ceftazidime] |  | confirmed |  |
| CCCCCCCCCC(=O)N[C@@H](Cc1c[nH]c2ccccc12)C(=O)N[C@H](CC(N)=O)C(=O)N[C@@H](CC(=O)O)C(=O)N[C@@H]1C(=O)NCC(=O)N[C@@H](CCCN)C(=O)N[C@@H](CC(=O)O)C(=O)N[C@H](C)C(=O)N[C@@H](CC(=O)O)C(=O)NCC(=O)N[C@H](CO)C(=O)N[C@@H]([C@H](C)CC(=O)O)C(=O)N[C@@H](CC(=O)c2ccccc2N)C(=O)O[C@@H]1C [daptomycin] | clear zone of inhibition |  |  |
| gelatin |  |  | toxicity to mammalian cells (mammalian cells): minimally toxic |
| CCN=C=NCCCN(C)C [EDC, 1-ethyl-3-(3-dimethylaminopropyl) carbodiimide] |  |  | cytotoxicity to cultured cells (cultured cells): negligibly cytotoxic |
